Experimental data taken from BindingDB's records for doi:10.1016/j.bmcl.2003.08.082 (The University of Huddersfield, 2003).

Target: Beta-lactamase (Enterobacter cloacae, UniProt P05364)
Assay: Inhibitor activity against Beta-lactamase, derived from the Gram negative bacteria Enterobacter cloacae at pH 7
Settings: read-out: kon (M-1-s-1)

Sequence of Beta-lactamase (P05364 whole entry): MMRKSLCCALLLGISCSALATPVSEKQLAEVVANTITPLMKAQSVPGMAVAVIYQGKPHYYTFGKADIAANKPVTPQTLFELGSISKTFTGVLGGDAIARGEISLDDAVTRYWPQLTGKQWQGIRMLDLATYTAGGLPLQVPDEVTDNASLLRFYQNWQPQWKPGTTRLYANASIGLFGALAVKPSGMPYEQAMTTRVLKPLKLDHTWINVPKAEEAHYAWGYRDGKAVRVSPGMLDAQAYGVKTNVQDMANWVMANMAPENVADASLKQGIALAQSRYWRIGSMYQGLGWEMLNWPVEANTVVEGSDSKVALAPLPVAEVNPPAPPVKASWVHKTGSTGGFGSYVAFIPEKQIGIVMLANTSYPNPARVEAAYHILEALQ

O=C(c1ccccc1)N1CCS1(=O)=O
kon: 163 M⁻¹ s⁻¹

CC(C)C1CN(C(=O)c2ccccc2)S1(=O)=O (configuration not stated)
kon: 0.07 M⁻¹ s⁻¹
